Five molecules from patent US20210323977A1, “PYRROLIDINYL AMIDE COMPOUNDS FOR THE TREATMENT OF AUTOIMMUNE DISEASE” (Hoffmann-La Roche Inc., priority 2018, published 2021) can be followed below.

The assay concerns the target T1, human TLR7 (Homo sapiens, UniProt Q9NYK1).
T1 sequence (Q9NYK1 27-1049): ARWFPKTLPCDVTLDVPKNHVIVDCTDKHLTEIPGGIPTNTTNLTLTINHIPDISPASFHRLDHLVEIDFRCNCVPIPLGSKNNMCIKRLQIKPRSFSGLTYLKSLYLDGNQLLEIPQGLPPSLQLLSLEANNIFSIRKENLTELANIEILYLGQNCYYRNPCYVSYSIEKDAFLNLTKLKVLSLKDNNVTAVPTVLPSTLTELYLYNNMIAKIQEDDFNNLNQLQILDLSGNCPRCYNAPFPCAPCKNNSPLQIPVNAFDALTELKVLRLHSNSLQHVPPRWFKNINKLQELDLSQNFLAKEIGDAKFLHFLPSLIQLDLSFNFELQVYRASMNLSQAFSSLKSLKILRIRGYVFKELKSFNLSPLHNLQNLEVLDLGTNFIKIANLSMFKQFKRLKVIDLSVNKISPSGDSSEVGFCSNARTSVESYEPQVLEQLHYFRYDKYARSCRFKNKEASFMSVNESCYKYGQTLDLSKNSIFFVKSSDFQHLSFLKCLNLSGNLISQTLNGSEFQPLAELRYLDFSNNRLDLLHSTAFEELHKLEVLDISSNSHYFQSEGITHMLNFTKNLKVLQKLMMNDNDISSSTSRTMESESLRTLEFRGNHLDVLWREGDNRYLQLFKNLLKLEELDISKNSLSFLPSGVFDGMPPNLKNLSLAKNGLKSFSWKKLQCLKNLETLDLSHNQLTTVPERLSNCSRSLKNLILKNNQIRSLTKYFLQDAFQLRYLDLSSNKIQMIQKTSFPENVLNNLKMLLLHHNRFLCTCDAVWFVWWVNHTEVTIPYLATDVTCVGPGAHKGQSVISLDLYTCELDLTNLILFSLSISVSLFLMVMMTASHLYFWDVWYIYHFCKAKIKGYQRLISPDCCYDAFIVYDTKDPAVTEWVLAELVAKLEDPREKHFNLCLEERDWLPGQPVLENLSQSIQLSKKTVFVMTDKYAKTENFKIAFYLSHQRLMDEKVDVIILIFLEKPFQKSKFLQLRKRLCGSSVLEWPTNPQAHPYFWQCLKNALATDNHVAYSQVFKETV
Briefly: HEK293-Blue-hTLR-7 cells assay. As to conditions: HEK293-Blue-hTLR7 cells, SEAP reporter, R848 stimulation, 20 hrs. Format: cell-based.

The molecule `C[C@@H]1CN(c2ccc(C#N)c3ncccc23)C[C@H]1C(=O)NC1CCCNCC1` (single isomer, unassigned) [Example 52A, Trans-N-(azepan-4-yl)-1-(8-cyano-5-quinolyl)-4-methyl-pyrrolidine-3-carboxamide] had an IC50 of 0.203 µM.

Molecule `O=C(NC1CC2(CCNCC2)C1)C1CN(c2ccc(C(F)(F)F)c3nccnc23)CC12CC2` (centres unmarked) [Example 34, N-(7-azaspiro[3.5]nonan-2-yl)-5-[8-(trifluoromethyl)quinoxalin-5-yl]-5-azaspiro[2.4]heptane-7-carboxamide] showed an IC50 of 0.046 µM. This IC50 lies about 4.4-fold lower than the previous one.

In turn, `CC(C)[C@@H]1CN(c2ccc(C#N)c3ncccc23)C[C@H]1C(=O)NC1CCN(C)CC1` (relative stereo) [Example 37, Trans-1-(8-cyano-5-quinolyl)-4-isopropyl-N-(1-methyl-4-piperidyl)pyrrolidine-3-carboxamide] returned an IC50 of 0.059 µM.

On to `N#Cc1ccc(N2CC(C(=O)NC[C@H]3CNCCO3)C3(CC3)C2)c2nccnc12` (single isomer, unassigned) [Example 70B], for which the half-inhibitory concentration (IC50) came to 0.233 µM.

Consider `N#Cc1ccc(N2CC(C(=O)NC[C@H]3CNCCO3)C3(CC3)C2)c2nccnc12` (single isomer, unassigned) [Example 70A], for which half-maximal inhibition (IC50) required 0.019 µM.

As a reminder, the IC50 is the concentration needed to halve the response being measured.
